We go through one compound from patent US20050272605A1, “Method to treat seeds” (priority 2002, published 2005).

For assay [1], the system named is Brachiaria dictyoneura seeds. Kind of assay: Germination test of Brachiaria dictyoneura seeds after scarification, nitrate soaking and GA (Example 2). It is filed as in vivo. An excerpt: The seeds (two replicates of 100 seeds) were sown on a soil substrate with the same growth conditions described above.
Assay [2] deals with Paspalum notatum seeds. Kind of assay: Germination of Paspalum notatum seeds, lot of 1997 (Example 4). It is filed as in vivo, Paspalum notatum (cv. Pensacola).
Assay [3] relates to Panicum maximum seeds. In words: Germination of Panicum maximum seeds (Example 6). It is filed as in vivo, Panicum maximum cv. Tanzania. Conditions: scarified seeds.
The test system of assay [4] is Paspalum notatum seeds. Kind of assay: Germination of Paspalum notatum seeds, lot of 2001 (Example 5). It is filed as in vivo, Paspalum notatum cv Pensacola. Conditions: one scarification and aerated nitrate treatment.
Assay [5] deals with Brachiaria dictyoneura seeds. In words: Germination test of Brachiaria dictyoneura seeds after scarification and aerated nitrate treatment (Example 1). It is filed as in vivo. Conditions: for % Germination 7 days (paper + water): paper substrate irrigated with water, after 7 months storage. How it is done:
The tank is filled with an approximately 0.2% solution of potassium nitrate 16 in water, to level which will ensure that the seed-containing bags are just immersed. The seeds 15 are immersed at ambient temperature for about 10 to about 36 hours, during which time the tank is constantly aerated by a flow of air form the compressed air source through the perforated pipe 12. The bags are then removed form the tank 10 and allowed to drain for about 12 hours. If the seed being treated requires addition of further agents such as gibberellic acid or smoke extract, then suitable quantities of these ingredients in solution are poured over the draining seed, and mixed by hand. The seeds are then dried to between 8% and 14% moisture content, preferably 12% moisture content, and stored as required.
A lot of Brachiaria dictyoneura seeds were harvested manually (by cutting the panicle and sweating for six days in heaps, and then threshing) in Zapote, Pérez Zeledón, Costa Rica, in July 2000. The seeds were dried in the shade, classified to remove waste and stored at 15° C. and 60% relative humidity for six months. A 30 kg sample of this seed lot was then scarified for 30 minutes with concentrated sulphuric acid on Jan. 4, 2001. The seeds were dried to 12% moisture and then re-scarified for a further 15 minutes on Feb. 26, 2001. After the second scarification the seeds were soaked in potassium nitrate for 24 hours and drained for 12 hours by the process described above.
Small 50 g sub-samples of the same seed lot were also taken, some of which were scarified once or twice but not treated, and some of which only received the first 30-minute scarification, but were treated. The seeds were then dried carefully in the sun until they reached the 12% moisture content. A sample of the nitrate treated, double scarified seed was tested for germination on Mar. 8, 2001, using 3 replicates of […] pure seeds on a soil-based substrate, at approximately 35° C. during the day, and 15° C. during the night, with florescent and incandescent lighting during the day (12 hours), in closed plastic germination trays. The result was 79% germination after 26 days. The four samples were then stored for a further 7 months when the following germination test was carried out on Nov. 17, 2001, using 4 replicates of 100 seeds on a paper substrate irrigated with water, and the same growth conditions described above.

The test system of assay [6] is Brachiaria brizantha seeds. Kind of assay: Germination test of acid-scarified Brachiaria brizantha seeds on soil or paper substrate (Example 3). It is filed as in vivo. How it is done: Effect of nitrate on a lot of acid-scarified Brachiaria brizantha imported from Brazil in July 2001, shortly after harvesting from the soil surface, using different substrates for the germination test.
The seeds were treated on Aug. 15, 2001 and after drying, samples were taken and tested for germination on Aug. 24, 2001. The soil substrate was maintained at the same moisture level throughout the test by weight. The paper substrate was maintained moist by irrigation from below, using a piece of plastic foam to separate the paper from the water in the base of the tray.

Turning to `O=[N+]([O-])[O-].[K+]` [Nitrate, potassium nitrate], the “% Germination 15 days (soil substrate)” value was determined as 42.5b % in assay [1] (Scarification once (20 minutes)) and 65.0c % in assay [1] (Scarification twice (20 + 10 minutes)). In addition, the “% Germination” value came to 64.8% in assay [2] (Scarification 10 minutes), 63.5% in assay [2] (Scarification 20 minutes), 50.0% in assay [3] and 79.0% in assay [4]. Further, the “% Germination 7 days (paper + water)” value turned out to be 87.25c % in assay [5] (Scarified once, listed as Aerated nitrate treatment); 87% in assay [5] (Scarified once, listed as aerated nitrate treatment); 93.00c % in assay [5] (Scarified twice, listed as Aerated nitrate treatment); 93% in assay [5] (Scarified twice, listed as aerated nitrate treatment). In addition, the “germination after 26 days” value in assay [5] (double scarified seed, soil-based substrate, tested Mar. 8, 2001) was 79%. The seedling vigor entry in assay [5] (seedlings from treated seeds versus untreated) was “greater vigor”. Further, the “increase in germination due to nitrate treatment” value in assay [5] (seeds scarified once) is given as 30%; in assay [5] (seeds scarified twice) it was 20%. Moreover, the “% Germination 7 days” value in assay [6] (Paper substrate) came to 77cd %; in assay [6] (Soil substrate) it was 88de %. The entries for the “% Germination 25 days” value in assay [6] (Paper substrate) and in assay [6] (Soil substrate) were 82cde % and 90e %, respectively.
